Measurements as given in patent US7652005B2, “Tricyclic δ-opioid modulators” (Janssen Pharmaceutica N.V., priority 2004, dated 2010).
pKi: −log10 of the molar value.

Key:
delta opioid receptor = target: T1, delta opioid receptor (Rattus norvegicus, UniProt P33533); test: Rat Brain Delta Opioid Receptor Binding Assay; settings: rat forebrain membrane preparation; [3H]DPDPE or [3H]naltrindole, 25° C., 2.5 h
T1 construct: from tissue; host or cells: rat forebrain homogenate (male Wistar rats), particulate membrane preparation
T1 sequence (P33533 whole entry): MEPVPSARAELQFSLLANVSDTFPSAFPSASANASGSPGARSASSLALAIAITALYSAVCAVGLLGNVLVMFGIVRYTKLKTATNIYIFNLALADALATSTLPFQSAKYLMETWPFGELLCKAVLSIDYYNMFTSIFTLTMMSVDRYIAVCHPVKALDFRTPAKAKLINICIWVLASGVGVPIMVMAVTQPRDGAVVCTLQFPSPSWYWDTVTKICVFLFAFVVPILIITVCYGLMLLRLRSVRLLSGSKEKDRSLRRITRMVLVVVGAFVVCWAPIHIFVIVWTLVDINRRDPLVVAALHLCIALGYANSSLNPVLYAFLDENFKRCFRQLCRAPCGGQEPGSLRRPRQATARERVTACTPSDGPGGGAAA

mu opioid receptor = target: T2, mu opioid receptor (Rattus norvegicus, UniProt P33535); test: Rat Brain Mu Opioid Receptor Binding Assay; settings: rat forebrain membrane preparation; [3H]DAMGO, 25° C., 2.5 h
T2 construct: Following incubation with the mu selective peptide ligand, ˜0.8 nM [^3H]DAMGO; from tissue; host or cells: rat forebrain homogenate (male Wistar rats), particulate membrane preparation
T2 sequence (P33535 whole entry): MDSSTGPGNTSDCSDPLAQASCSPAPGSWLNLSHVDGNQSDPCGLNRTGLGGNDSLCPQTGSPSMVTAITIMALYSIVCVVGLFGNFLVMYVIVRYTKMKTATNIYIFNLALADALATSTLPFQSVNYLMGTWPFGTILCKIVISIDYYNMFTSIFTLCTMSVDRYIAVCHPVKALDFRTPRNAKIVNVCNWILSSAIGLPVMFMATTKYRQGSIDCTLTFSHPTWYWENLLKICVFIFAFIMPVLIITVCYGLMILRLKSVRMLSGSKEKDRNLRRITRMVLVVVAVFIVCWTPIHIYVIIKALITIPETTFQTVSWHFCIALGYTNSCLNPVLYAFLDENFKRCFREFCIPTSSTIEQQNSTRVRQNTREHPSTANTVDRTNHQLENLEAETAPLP

Structure (SMILES): c1ccc(CCN2[C@@H]3CC[C@H]2C[C@H](N2c4ccccc4Oc4cc(-c5cccnc5)ccc42)C3)cc1 [Compound 4l, Exo-10-(8-Phenethyl-8-aza-bicyclo[3.2.1]oct-3-yl)-3-pyridin-3-yl-10H-phenoxazine]
- pKi (delta opioid receptor): 6.37

Structure (SMILES): N#Cc1ccc2c(c1)Sc1ccccc1N2C1C[C@H]2CC[C@@H](C1)N2 (mixture of isomers) [Compound 1aa, 10-(8-Aza-bicyclo[3.2.1]oct-3-yl)-10H-phenothiazine-3-carbonitrile]
- pKi (delta opioid receptor): 6.03

Structure (SMILES): c1ccc(CN2[C@@H]3CC[C@H]2C[C@H](N2c4ccccc4Oc4cc(-c5cccnc5)ccc42)C3)nc1 [Compound 5l, Exo-3-Pyridin-3-yl-10-(8-pyridin-2-ylmethyl-8-aza-bicyclo[3.2.1]oct-3-yl)-10H-phenoxazine]
- pKi (delta opioid receptor): 6.27

Structure (SMILES): c1cncc(-c2ccc3c(c2)Oc2ccccc2N3[C@H]2C[C@H]3CC[C@@H](C2)N3Cc2cccs2)c1 [Compound 9j, Endo-3-Pyridin-3-yl-10-(8-thiophen-2-ylmethyl-8-aza-bicyclo[3.2.1]oct-3-yl)-10H-phenoxazine]
- pKi (delta opioid receptor): 4.93

Structure (SMILES): CC(=O)Nc1ccccc1-c1ccc2c(c1)Oc1ccccc1N2[C@H]1C[C@H]2CC[C@@H](C1)N2Cc1cccs1 [Compound 4x, Endo-N-{2-[10-(8-Thiophen-2-ylmethyl-8-aza-bicyclo[3.2.1]oct-3-yl)-10H-phenoxazin-3-yl]-phenyl}-acetamide]
- pKi (delta opioid receptor): 6.79

Structure (SMILES): N#Cc1ccc2c(c1)Oc1ccccc1N2[C@H]1C[C@H]2CC[C@@H](C1)N2 [Compound 8b, Endo-10-(8-Aza-bicyclo[3.2.1]oct-3-yl)-10H-phenoxazine-3-carbonitrile]
- pKi (delta opioid receptor): 5.72
- pKi (mu opioid receptor): < 5.00

Structure (SMILES): CN(CCc1ccccc1)C(=O)c1ccc2c(c1)Oc1ccccc1N2C1CC2CCC(C1)N2C (stereo not drawn) [Compound 6a, 10-(8-Methyl-8-aza-bicyclo[3.2.1]oct-3-yl)-10H-phenoxazine-3-carboxylic acid methyl-phenethyl-amide]
- pKi (delta opioid receptor): 6.24
- pKi (mu opioid receptor): 6.09

Structure (SMILES): c1ccc2c(c1)Oc1cc(-c3ccncc3)ccc1N2[C@H]1C[C@H]2CC[C@@H](C1)N2Cc1ccoc1 [Compound 5k, Endo-10-(8-Furan-3-ylmethyl-8-aza-bicyclo[3.2.1]oct-3-yl)-3-pyridin-4-yl-10H-phenoxazine]
- pKi (delta opioid receptor): 6.61

Structure (SMILES): CC(=O)Nc1ccccc1-c1ccc2c(c1)Sc1ccccc1N2C1C[C@H]2CC[C@@H](C1)N2Cc1ccoc1 (mixture of isomers) [Compound 7i, N-{2-[10-(8-Furan-3-ylmethyl-8-aza-bicyclo[3.2.1]oct-3-yl)-10H-phenothiazin-3-yl]-phenyl}-acetamide]
- pKi (delta opioid receptor): 6.91
- pKi (mu opioid receptor): 6.26

Structure (SMILES): CN1C2CCC1CC(N1c3ccccc3Oc3cc(-c4noc(=O)[nH]4)ccc31)C2 (stereo not drawn) [Compound 2h, 3-[10-(8-Methyl-8-aza-bicyclo[3.2.1]oct-3-yl)-10H-phenoxazin-3-yl]-4H-[1,2,4]oxadiazol-5-one]
- pKi (delta opioid receptor): 6.22
- pKi (mu opioid receptor): 5.54

Structure (SMILES): CC(=O)Nc1ccccc1-c1ccc2c(c1)Sc1ccccc1N2C1C[C@H]2CC[C@@H](C1)N2CCc1ccccc1 (mixture of isomers) [Compound 14i, N-{2-[10-(8-Phenethyl-8-aza-bicyclo[3.2.1]oct-3-yl)-10H-phenothiazin-3-yl]-phenyl}-acetamide]
- pKi (delta opioid receptor): 5.79
- pKi (mu opioid receptor): 6.22

Structure (SMILES): c1ccc(CCN2[C@@H]3CC[C@H]2C[C@@H](N2c4ccccc4Oc4cc(-c5ccncc5)ccc42)C3)cc1 [Compound 3k, Endo-10-(8-Phenethyl-8-aza-bicyclo[3.2.1]oct-3-yl)-3-pyridin-4-yl-10H-phenoxazine]
- pKi (delta opioid receptor): 5.47

Structure (SMILES): CCN(CC)C(=O)c1ccc2c(c1)Oc1ccccc1N2[C@H]1C[C@H]2CC[C@@H](C1)N2CCc1ccccc1 [Compound 6t, Endo-10-(8-Phenethyl-8-aza-bicyclo[3.2.1]oct-3-yl)-10H-phenoxazine-3-carboxylic acid diethylamide]
- pKi (delta opioid receptor): 6.64

Structure (SMILES): c1csc(CN2[C@@H]3CC[C@H]2CC(N2c4ccccc4Sc4cc(-c5ccncc5)ccc42)C3)c1 (mixture of isomers) [Compound 12i, 3-Pyridin-4-yl-10-(8-thiophen-2-ylmethyl-8-aza-bicyclo[3.2.1]oct-3-yl)-10H-phenothiazine]
- pKi (delta opioid receptor): 6.31
- pKi (mu opioid receptor): 5.84

Structure (SMILES): COc1cccc2c1Oc1cc(-c3ccncc3)ccc1N2[C@H]1C[C@H]2CC[C@@H](C1)N2CCc1ccccc1 [Compound 13v, Endo-6-Methoxy-10-(8-phenethyl-8-aza-bicyclo[3.2.1]oct-3-yl)-3-pyridin-4-yl-10H-phenoxazine]
- pKi (delta opioid receptor): < 5.00

Structure (SMILES): c1ccc(CN2[C@@H]3CC[C@H]2C[C@@H](N2c4ccccc4Oc4cc(-c5cccnc5)ccc42)C3)nc1 [Compound 7j, Endo-3-Pyridin-3-yl-10-(8-pyridin-2-ylmethyl-8-aza-bicyclo[3.2.1]oct-3-yl)-10H-phenoxazine]
- pKi (delta opioid receptor): 6.98

Structure (SMILES): c1ccc2c(c1)Oc1cc(-c3ccncc3)ccc1N2[C@H]1C[C@H]2CC[C@@H](C1)N2 [Compound 2k, Endo-10-(8-Aza-bicyclo[3.2.1]oct-3-yl)-3-pyridin-4-yl-10H-phenoxazine]
- pKi (delta opioid receptor): 6.16

Structure (SMILES): c1ccc(CCN2[C@@H]3CC[C@H]2C[C@H](N2c4ccccc4Oc4cc(-c5ccncc5)ccc42)C3)cc1 [Compound 3m, Exo-10-(8-Phenethyl-8-aza-bicyclo[3.2.1]oct-3-yl)-3-pyridin-4-yl-10H-phenoxazine]
- pKi (delta opioid receptor): 6.32

Structure (SMILES): c1cncc(-c2ccc3c(c2)Oc2ccccc2N3[C@@H]2C[C@H]3CC[C@@H](C2)N3)c1 [Compound 3l]
- pKi (delta opioid receptor): 6.14

Structure (SMILES): c1ccc(CN2[C@@H]3CC[C@H]2CC(N2c4ccccc4Sc4cc(-c5cccnc5)ccc42)C3)nc1 (mixture of isomers) [Compound 9i, 3-Pyridin-3-yl-10-(8-pyridin-2-ylmethyl-8-aza-bicyclo[3.2.1]oct-3-yl)-10H-phenothiazine]
- pKi (delta opioid receptor): 6.19
- pKi (mu opioid receptor): 6.27

Structure (SMILES): C=CCN1[C@@H]2CC[C@H]1CC(N1c3ccccc3Sc3cc(-c4ccccc4NC(C)=O)ccc31)C2 (mixture of isomers) [Compound 13i, N-{2-[10-(8-Allyl-8-aza-bicyclo[3.2.1]oct-3-yl)-10H-phenothiazin-3-yl]-phenyl}-acetamide]
- pKi (delta opioid receptor): 6.26
- pKi (mu opioid receptor): 5.43

Structure (SMILES): Brc1ccc2c(c1)Sc1ccccc1N2C1C[C@H]2CC[C@@H](C1)N2 (mixture of isomers) [Compound 4i, 10-(8-Aza-bicyclo[3.2.1]oct-3-yl)-3-bromo-10H-phenothiazine]
- pKi (delta opioid receptor): 6.06
- pKi (mu opioid receptor): 5.18

Structure (SMILES): CC(=O)Nc1ccccc1-c1ccc2c(c1)Oc1ccccc1N2[C@H]1C[C@H]2CC[C@@H](C1)N2CCc1ccccc1 [Compound 3x, Endo-N-{2-[10-(8-Phenethyl-8-aza-bicyclo[3.2.1]oct-3-yl)-10H-phenoxazin-3-yl]-phenyl}-acetamide]
- pKi (delta opioid receptor): 5.80

Structure (SMILES): c1ccc(CCN2[C@@H]3CC[C@H]2CC(N2c4ccccc4Oc4cc(-c5nnn[nH]5)ccc42)C3)cc1 (stereo partly drawn) [Compound 7b, Endo-10-(8-Phenethyl-8-aza-bicyclo[3.2.1]oct-3-yl)-3-(1H-tetrazol-5-yl)-10H-phenoxazine]
- pKi (delta opioid receptor): 5.26
- pKi (mu opioid receptor): 6.54

Structure (SMILES): c1ccc(CN2[C@@H]3CC[C@H]2C[C@@H](N2c4ccccc4Oc4cc(-c5ccncc5)ccc42)C3)nc1 [Compound 4k, Endo-3-Pyridin-4-yl-10-(8-pyridin-2-ylmethyl-8-aza-bicyclo[3.2.1]oct-3-yl)-10H-phenoxazine]
- pKi (delta opioid receptor): 6.35

Structure (SMILES): c1cncc(-c2ccc3c(c2)Sc2ccccc2N3C2C[C@H]3CC[C@@H](C2)N3Cc2ccoc2)c1 (mixture of isomers) [Compound 6i, 10-(8-Furan-3-ylmethyl-8-aza-bicyclo[3.2.1]oct-3-yl)-3-pyridin-3-yl-10H-phenothiazine]
- pKi (delta opioid receptor): 6.55
- pKi (mu opioid receptor): 5.98

Structure (SMILES): CCN(CC)C(=O)c1ccc2c(c1)Oc1ccccc1N2[C@@H]1C[C@H]2CC[C@@H](C1)N2CCc1ccccc1 [Compound 3u, Exo-10-(8-Phenethyl-8-aza-bicyclo[3.2.1]oct-3-yl)-10H-phenoxazine-3-carboxylic acid diethylamide]
- pKi (delta opioid receptor): 5.87

Structure (SMILES): c1ccc(CN2[C@@H]3CC[C@H]2C[C@H](N2c4ccccc4Oc4cc(-c5ccncc5)ccc42)C3)nc1 [Compound 4m, Exo-3-Pyridin-4-yl-10-(8-pyridin-2-ylmethyl-8-aza-bicyclo[3.2.1]oct-3-yl)-10H-phenoxazine]
- pKi (delta opioid receptor): 6.06

Structure (SMILES): c1csc(CN2[C@@H]3CC[C@H]2C[C@@H](N2c4ccccc4Oc4cc(-c5ccncc5)ccc42)C3)c1 [Compound 6k, Endo-3-Pyridin-4-yl-10-(8-thiophen-2-ylmethyl-8-aza-bicyclo[3.2.1]oct-3-yl)-10H-phenoxazine]
- pKi (delta opioid receptor): 4.85

Structure (SMILES): Oc1cccc2c1Oc1cc(-c3ccncc3)ccc1N2[C@H]1C[C@H]2CC[C@@H](C1)N2CCc1ccccc1 [Compound 10v, Endo-10-(8-Phenethyl-8-aza-bicyclo[3.2.1]oct-3-yl)-7-pyridin-4-yl-10H-phenoxazin-4-ol]
- pKi (delta opioid receptor): < 5.00

Structure (SMILES): c1ccc(CCN2[C@@H]3CC[C@H]2C[C@@H](N2c4ccccc4Oc4cc(-c5cccnc5)ccc42)C3)cc1 [Compound 6j, Endo-10-(8-Phenethyl-8-aza-bicyclo[3.2.1]oct-3-yl)-3-pyridin-3-yl-10H-phenoxazine]
- pKi (delta opioid receptor): 5.49

Structure (SMILES): c1cncc(-c2ccc3c(c2)Oc2ccccc2N3[C@H]2C[C@H]3CC[C@@H](C2)N3)c1 [Compound 5j, Endo-10-(8-Aza-bicyclo[3.2.1]oct-3-yl)-3-pyridin-3-yl-10H-phenoxazine]
- pKi (delta opioid receptor): 6.39

Structure (SMILES): c1ccc2c(c1)Oc1cc(-c3ccncc3)ccc1N2[C@@H]1C[C@H]2CC[C@@H](C1)N2Cc1ccoc1 [Compound 5m, Exo-10-(8-Furan-3-ylmethyl-8-aza-bicyclo[3.2.1]oct-3-yl)-3-pyridin-4-yl-10H-phenoxazine]
- pKi (delta opioid receptor): 5.89

Structure (SMILES): c1ccc2c(c1)Oc1cc(-c3ccncc3)ccc1N2[C@@H]1C[C@H]2CC[C@@H](C1)N2 [Compound 2m, Exo-10-(8-Aza-bicyclo[3.2.1]oct-3-yl)-3-pyridin-4-yl-10H-phenoxazine]
- pKi (delta opioid receptor): 6.20
